Results as given in paper PMC12040169 (PLOS Biology, 2025).

test: in vitro; settings: human, hela cells, % viability

Point of comparison: `Cc1ccc(-c2cc(C(=O)Nc3ccc(S(=O)(=O)Nc4nccs4)cc3)c3ccccc3n2)c(C)c1` [CBK262638], viability at 28.5 h, 10 µM 85.3%. Against it:
- CC1(C)Cc2ccccc2C(NC(Cc2ccccc2)C(=O)O)=N1 (stereo not drawn) [CBK262533] — higher, 107%
- O=C(Nc1cc(Oc2cccnc2)cc([N+](=O)[O-])c1)c1cc2nc(-c3ccco3)cc(C(F)(F)F)n2n1 [CBK262534] — higher, 110%
- O=C(O)CNC(=O)/C(=C/c1ccc(Br)cc1)NC(=O)c1ccc(Br)o1 [CBK262537] — lower, 80.1%
- Cc1cc2nc3s/c(=C\c4ccc(-c5ccc(O)c(C(=O)O)c5)o4)c(=O)n3c2cc1C [CBK262538] — higher, 100%
- O=[N+]([O-])c1cc2c(cc1C1NN=C(c3ccccc3)S1)OCO2 (stereo not drawn) [CBK262540] — higher, 112%
- COc1nc(NCCN2CCOCC2)nc(Nc2ccc(Cl)cc2)n1 [CBK262541] — higher, 102%
- Cn1c(SCC(=O)c2ccc(O)c(O)c2)nnc1-c1ccccc1 [CBK262544] — lower, 81.5%
- N#C/C(=C\c1cn(Cc2ccc(Cl)cc2Cl)nc1-c1ccccc1)c1nc2ccccc2[nH]1 [CBK262545] — higher, 87.3%
- O=C(CSc1nc2ccccc2s1)OCc1ccc([N+](=O)[O-])cc1 [CBK262547] — higher, 91.1%
- CCOC(=O)c1c(NC(=O)CN2CCOCC2)sc2c1CCC2 [CBK262548] — higher, 102%
- O=c1/c(=C/c2ccc3c(c2)OCO3)sc2nc3cc(Br)cnc3n12 [CBK262550] — higher, 106%
- COCc1cc(C)nc(NCCO)c1C#N [CBK262556] — higher, 96.6%
- O=C(CCCN1C(=O)c2cccc3cccc(c23)C1=O)Nc1cccnc1 [CBK262560] — lower, 81.5%
- CC1(C)Cc2ccccc2C(NCC(=O)O)=N1 [CBK262562] — lower, 83%
- CCCCSc1nnc2c(n1)OC(/C=C/c1ccc([N+](=O)[O-])o1)Nc1ccccc1-2 (stereo not drawn) [CBK262565] — higher, 101%
- O=C(O)c1ccccc1-c1ccc(/C=C2\S/C(=N\c3ccccc3)N(c3ccccc3)C2=O)o1 [CBK262566] — higher, 101%
- O=C(Nc1cc(Oc2ccc(F)cc2)cc(Oc2cccnc2)c1)c1nn2c(C(F)(F)F)cc(-c3cccs3)nc2c1Cl [CBK262568] — higher, 93.1%
- OC(Cn1c(Cc2ccccc2)nc2ccccc21)Cn1c2ccccc2c2ccccc21 (stereo not drawn) [CBK262570] — higher, 95.2%
- CN1CCN(c2nc3c(N)ncn(CC(O)CO)c-3n2)CC1 (stereo not drawn) [CBK262571] — higher, 108%
- Cc1ccccc1NC(=O)c1c(NC(=O)Cc2ccccc2)sc2c1CCCC2 [CBK262572] — higher, 108%
- NNC(=O)/C(=C\c1cccc([N+](=O)[O-])c1)NC(=O)c1ccc(Br)o1 [CBK262573] — higher, 107%
- Nc1nonc1C(=O)NCCNc1ccc([N+](=O)[O-])cc1 [CBK262577] — higher, 104%
- O=C(O)CCn1c2ccccc2c2cc(I)ccc21 [CBK262578] — higher, 97.5%
- COc1cc([N+](=O)[O-])ccc1-c1ccc(/C=c2\sc3nc4cc(Br)cnc4n3c2=O)o1 [CBK262579] — higher, 103%
- O=C(NCC1c2ccccc2CCN1C(=O)CN1C(=O)c2ccccc2C1=O)C1CCCCC1 (stereo not drawn) [CBK262582] — higher, 90.6%
- CCOC(=O)c1c(NC(=O)Cn2cnc([N+](=O)[O-])n2)sc2c1CCCC2 [CBK262583] — higher, 88.4%
- O=C(Nc1cc(Oc2cncc(Cl)c2)cc([N+](=O)[O-])c1)c1nn2c(C(F)(F)F)cc(-c3cccs3)nc2c1Cl [CBK262585] — higher, 94.9%
- CN1CCc2c(sc3nc(SCC(=O)c4ccccc4)n(-c4ccccc4)c(=O)c23)C1 [CBK262586] — higher, 85.8%
- CSc1nc(N/N=C/c2ccc(Cl)cc2)c2c3c(sc2n1)CN(C)CC3 [CBK262588] — higher, 107%
- O=c1c2c(nc(NCCO)n1-c1ccccc1)-c1ccccc1CC21CCCCC1 [CBK262589] — higher, 96.4%
- O=C(Cc1ccc(-c2ccccc2)cc1)NCc1cccnc1 [CBK262591] — higher, 86.4%
- COc1cccc(OCC(=O)O/N=C(\N)c2ccncc2)c1 [CBK262592] — higher, 91.6%
- c1ccc2[nH]c(SCCN3CCOCC3)nc2c1 [CBK262593] — higher, 89%
- CCN1CCCC1CNC(=O)c1cc([N+](=O)[O-])c(N(C)C)cc1OC (stereo not drawn) [CBK262595] — higher, 95.8%
- CN1C2C=C(N(CCc3ccccc3)C(=O)c3ccc(-c4ccccc4)cc3)CC1CC2 (stereo not drawn) [CBK262596C] — higher, 104%
- CN1C2C=C(N(CCc3ccccc3)C(=O)c3ccc(Cl)cc3)CC1CC2 (stereo not drawn) [CBK262604C] — higher, 94.7%
- O=C(Nc1ccc(C(=O)Nc2cccc(-c3nc4ccccc4o3)c2)cc1)c1ccc([N+](=O)[O-])cc1 [CBK262606] — higher, 96.6%
- COc1cc(C(=O)N/C(=C\c2ccc(O)cc2)C(=O)O)cc(OC)c1OC [CBK262607] — higher, 86.2%
- COc1ccc(OCC(=O)Nc2cc3oc4ccccc4c3cc2OC)cc1 [CBK262608] — higher, 88.5%
- O=C(O)CCC(=O)Nc1ccc(Br)cc1C(=O)c1ccccc1 [CBK262610] — higher, 114%
- Cc1ccc(NC(=O)CCC(=O)O)c(C(=O)c2ccccc2)c1 [CBK262611] — higher, 108%
- Cc1cc(C)cc(C(=O)N(CCc2ccccc2)C2CC3CCC(C2)N3C)c1 (stereo not drawn) [CBK262612C] — lower, 83.7%
- O=C1c2cc(-c3nc(-c4ccccc4)[nH]c3-c3ccccc3)ccc2-c2ccc([N+](=O)[O-])cc21 [CBK262613] — lower, 85%
- CC(C)N1CCC(=NNC(=O)COc2ccc(Cl)cc2Cl)CC1 [CBK262614] — lower, 83.2%
- Clc1ccc(-c2nc(-c3ccncc3)no2)c(Cl)c1 [CBK262615] — lower, 83.6%
- COc1ccc(C(=O)NNC(=O)c2cc(OC)cc(OC)c2)cc1 [CBK262616] — higher, 96%
- CC(=O)Nc1ccc(-c2nc(-c3ccc(-c4ccccc4)cc3)c(-c3ccc(-c4ccccc4)cc3)[nH]2)cc1 [CBK262620] — higher, 87.3%
- CCN1CCCC1CNC(=O)c1cccc(Cl)c1 (stereo not drawn) [CBK262621] — lower, 84.3%
- COC(=O)c1sc(NC(=O)C2CCCO2)c(C(=O)OC)c1C (stereo not drawn) [CBK262622] — higher, 88%
- O=C(NNC(=O)C(O)c1ccccc1)NC1CCCCC1 (stereo not drawn) [CBK262625] — higher, 106%
- CCOC(=O)c1c(NC(=O)c2cc(-c3ccc(C)c(C)c3)nc3ccccc23)sc2c1CCC(C)C2 (stereo not drawn) [CBK262627] — higher, 96.4%
- Cc1cccc(-c2cc(C(=O)Nc3sc4c(c3C#N)CCCCCC4)c3ccccc3n2)c1 [CBK262632] — higher, 103%
- Cc1c(-c2ccc(Cl)cc2Cl)nc2ccccc2c1C(=O)NCCC(c1ccccc1)c1ccccc1 [CBK262634] — higher, 99.7%
- NC(=O)c1ccc(NC(=O)c2sc3ccccc3c2Cl)cc1 [CBK262643] — higher, 90.8%
- O=C(NCCCn1ccnc1)c1cc(-c2ccc(Br)cc2)nc2ccccc12 [CBK262645] — lower, 84.8%
- CCC1CCc2c(sc(NC(=O)c3cc(-c4ccc(Cl)s4)nc4ccccc34)c2C(N)=O)C1 (stereo not drawn) [CBK262646] — higher, 88.9%
- CCCOC(=O)c1c(NC(=O)c2cc(-c3ccccc3)nc3ccccc23)sc2c1CCC(C)C2 (stereo not drawn) [CBK262647] — higher, 93.9%
- O=C(NCCN1CCOCC1)c1cc(-c2ccc(Cl)cc2)nc2ccccc12 [CBK262650] — higher, 96.6%
- COc1ccc(CC(=O)NNC(=O)Nc2ccc(Cl)c(Cl)c2)cc1 [CBK262652] — higher, 92.6%
